In PubChem BioAssay AID463229 (Broad Institute, 2010):

Each molecule was assayed on INS-1E rat beta cells, no cytokines, CellTiter-Glo ATP, 48 h (assay: cytokine-free beta-cell viability effect – INS-1E rat cells, ATP luminescence, cherry pick, counter-screen for beta-cell apoptosis protection project, dose response (AID 463229)).
Cn1c(/C=C/c2ccc([N+](=O)[O-])o2)nc2ccccc2c1=O gave an AC50 of 3.56 µM. For CN(c1ccccc1)S(=O)(=O)c1ccc(NC(=O)c2nc(S(C)(=O)=O)ncc2Cl)cc1, the AC50 was 7.32 µM. In the case of O=C(/C(N=Nc1cccc([N+](=O)[O-])c1)=C(/O)c1ccc(Br)cc1)C(F)(F)F, the AC50 is reported as 6.66 µM. Cc1ccc(O)c(NC(=S)NC(=O)c2ccc(-c3ccc(Cl)cc3)o2)c1 was tested, and the AC50 was 23.9 µM. With Cc1ccc2c(c1)S/C(=C/c1ccc[n+](C)c1)N2CCO the AC50 was 3.24 µM. For N#C/C(=C/c1ccc(N2CCCCCC2)o1)c1ccc(Cl)cc1, the AC50 was 24.3 µM. Work on C=C1C(=O)O[C@@H]2C[C@@H](C)[C@@H]3C=CC(=O)[C@@]3(C)[C@@H](O)[C@H]12 yielded an AC50 of 2.02 µM. With NC1=NC[C@H](Cc2ccc(O)cc2)N1CCCCC1CCCCC1 the AC50 was 2.34 µM. In the case of CCN1/C(=C/C=C/c2oc3ccc(-c4ccccc4)cc3[n+]2CC)Oc2ccc(-c3ccccc3)cc21, the AC50 is reported as 0.78 µM. CCOC(=O)N1CCC(NC(=O)C2CCCN(Cc3nc(-c4cccc(Cl)c4)oc3C)C2)CC1 (stereo unspecified) gave an AC50 of 6.01 µM. Oc1ccc(Br)cc1/C=N/Nc1ccccn1 showed an AC50 of 4.28 µM. Work on Cc1cc(C)nc(N/N=C2/CCCC/C2=C\c2ccccc2)n1 yielded an AC50 of 3.72 µM. Molecule COc1ccc(C(CCN2CCCCC2)c2c(OC)cc(OC)c3c(-c4ccccc4)cc(=O)oc23)cc1 (stereo unspecified) has an AC50 of 14.1 µM. Work on O=C(Nc1ccc(-c2nc3ccccc3o2)cc1)c1ccc(N2CCOCC2)c([N+](=O)[O-])c1 yielded an AC50 of 5.65 µM. For Fc1cc(F)c2nc(Nc3nc4c(F)cccc4s3)sc2c1, the AC50 was 4.95 µM. With Cc1ccc(Cn2c(=N)n(CC(=O)c3ccccc3)c3ccccc32)cc1 the AC50 was 9.12 µM. With Cc1ccccc1/C=C/C(=O)c1ccc([N+](=O)[O-])o1 the AC50 was 5.07 µM. With COc1cc([N+](=O)[O-])ccc1NC(=O)CC1SC(=Nc2ccc(F)cc2)N(CCC2=CCCCC2)C1=O (stereo unspecified) the AC50 was 4.23 µM. Work on C=C(C)C(=O)OCC(O)COc1ccc(C(C)(C)c2ccc(OCC(O)COC(=O)C(=C)C)cc2)cc1 (stereo unspecified) yielded an AC50 of 19.2 µM. In the case of CCC(=O)NC(c1cccs1)c1cc(Cl)c2cccnc2c1O (stereo unspecified), the AC50 is reported as 5.49 µM. O=C(CSC1=NCCS1)Nc1ccnc2ccccc12 gave an AC50 of 12.5 µM. CCc1ccc(C2=NNC(=Nc3cccc(S(=O)(=O)N(C)C)c3)SC2)cc1 gave an AC50 of 3.66 µM. In the case of Cc1ccc(-c2csc(NC(=O)c3c(C)noc3C)n2)s1, the AC50 is reported as 4.85 µM. CCc1ccc(S(=O)(=O)/N=C2\C=C(Nc3ccc(O)cc3)C(=O)c3ccccc32)cc1 was tested, and the AC50 was 2.21 µM. With O=C(c1cc(COc2cccc(C(F)(F)F)c2)on1)N1CCC(c2ccncc2)CC1 the AC50 was 7.14 µM. Work on CC1CCCCC1NS(=O)(=O)c1ccc(S(=O)(=O)NCc2ccncc2)cc1 (stereo unspecified) yielded an AC50 of 4.07 µM. CC(=O)Nc1ccc(NC2=C/C(=N/S(=O)(=O)c3cccs3)c3ccccc3C2=O)cc1 showed an AC50 of 7.66 µM. CC(=O)N1CCc2cc(S(=O)(=O)NCCC3=CCCCC3)ccc21 was tested, and the AC50 was 7.63 µM. Work on CCCC(=O)NC(c1ccccc1Cl)c1ccc2cccnc2c1O (stereo unspecified) yielded an AC50 of 2.13 µM. c1ccc(Nc2nc(NCc3ccco3)c3ccccc3n2)cc1 showed an AC50 of 8.02 µM. In the case of c1ccc(-[n+]2nc(Nc3cccc4ccccc34)sc2-c2c3ccccc3cc3ccccc23)cc1, the AC50 is reported as 3.86 µM. Molecule COc1ccc(C2/C=C\CN(C(=O)C3CC3)[C@H](Cc3ccccc3)C(=O)N2Cc2ccc(F)cc2)cc1 (stereo partly specified) has an AC50 of 14.5 µM. COc1ccc(OC)c(NC(=O)CN(Cc2ccc(F)cc2)C2CCCCC2)c1 gave an AC50 of 4.49 µM. Cc1cc(C(=O)N/N=C/c2cc(Br)cc(Br)c2OC(=O)c2cccc(F)c2)n[nH]1 showed an AC50 of 4.79 µM. O=C(Nc1nc(-c2ccccc2)cs1)c1ccccc1NS(=O)(=O)c1ccc(F)cc1 showed an AC50 of 4.56 µM. With COc1cccc(N2CCN(c3ncnc4c3[nH]c3ccc(F)cc34)CC2C)c1 (stereo unspecified) the AC50 was 3.09 µM. Work on CC(C)C[C@H]1CN=C(Nc2ccccc2)N1CC1CCC(C(C)(C)C)CC1 (stereo partly specified) yielded an AC50 of 8.6 µM. O=C(C1=C[C@@H](c2ccc(C(F)(F)F)cc2)C[C@@H](OCCCCO)O1)N1CCN(Cc2ccccc2)CC1 gave an AC50 of 12.6 µM. With CCOC(=O)c1ccc(NC(=O)NCc2cccnc2)cc1 the AC50 was 2.01 µM. CCOc1ccc(-c2csc(/C(C#N)=C\c3ccc(O)c([N+](=O)[O-])c3)n2)cc1 gave an AC50 of 4.57 µM. O=C1C(C2=NC(c3ccccn3)C3C(=O)N(c4ccc(OC(F)(F)F)cc4)C(=O)C23)=C(O)c2ccccc21 (stereo unspecified) showed an AC50 of 5.94 µM.
